“Also recorded” adds a separate entry of the source.
Key:
[1] = biological target: T1, human PNKP kinase activity (Homo sapiens, UniProt Q96T60); test: DNA kinase assay; format: biochemical
T1 construct: made in house; host or cells: bacteria (said only for the batch compared with aprataxin)
Description: Reaction mixtures (20 μl) containing kinase buffer (80 mM succinic acid (pH 5.5), 10 mM MgCl2, and 1 mM DTT), 100 μM 20-mer oligonucleotide substrate, 3.3 pmol of [γ-32P]ATP, A12B4C3 (0-50 μM) in 2 μl DMSO, and 1 μg of PNK were incubated at 37° C. for 20 minutes. The reaction was stopped by addition of an equal volume of DNA loading dye (90% formamide, 0.02% bromophenol blue, 0.02% xylene cyanol in 1×TBE). Samples were boiled for 5 minutes and the products separated on a 12% polyacrylamide/8 M urea gel. Gels were scanned with a Typhoon 9400 Variable Mode Imager (GE Healthcare), and quantified using Image Quant 5.2 Software (GE Healthcare).
The effect of A12B4C3 on the kinase activity of human PNKP was examined by quantifying the transfer of ^32P-labeled phosphate from radiolabeled ATP to an oligonucleotide. […] However, the inhibition of the kinase and phosphatase activities cannot be directly compared because the standard assay for kinase activity uses ten-fold more enzyme than the assay for phosphatase activity

[2] = Clonogenic survival assay, compound alone; format: cell-based; conditions: 1 μM, exposure up to 24 hours (data not shown)
Description: (§1) The effect of hPNKP inhibition by A12B4C3 on cellular survival following exposure to ionizing radiation was measured in A549, A549δPNKP and MDA-MB-231 and MDA-MB-231δPNKP cells by clonogenic assays. Cells were seeded on 60-mm tissue culture plates at various concentrations to give between about 100-1000 colonies per plate and returned to the incubator overnight to allow the cells to attach. For radiosensitization studies, the cells were incubated with or without 1 μM A12B4C3 for 2 hours before irradiation and then exposed to increasing doses of γ-radiation (^60Co Gammacell; Atomic Energy of Canada Limited, Ottawa). After irradiation, cells were incubated for a further 24 hours in the same media and then washed twice with phosphate-buffered saline (PBS) and incubated in fresh media without the inhibitor. Colonies were stained with crystal violet after 10 to 14 days and counted with an automated Colcount colony counter (Oxford Optronix, Oxford, UK).
A12B4C3 was first tested for inherent toxicity. Cytotoxicity was measured by cell proliferation assay after exposure of A549 human lung adenocarcinoma cells and MDA-MB-231 cells to different doses of the compound for 72 hours (FIG. 6A). A dose-dependent reduction in cell proliferation up to 50% at 100 μM A12B4C3 was observed. […] No effect on cell proliferation was detected after exposure to 1 μM A12B4C3.

A549 cells = test: Radiosensitization, clonogenic assay; format: cell-based, human; conditions: 1 μM, 2 hours before irradiation and 24 hours after
Description: as §1
(§2) The capacity of A12B4C3 to act as a radiosensitizer was then examined. A549 cells were incubated with 1 μM A12B4C3 for 2 hours prior to irradiation and then maintained in the presence of the compound for a further 24 hours. […] This radiation response was nearly identical to that seen with cells depleted of PNKP by stable expression of shRNA (A549δPNKP).

[3] = system: A549δPNKP cells (PNKP-depleted); test: Radiosensitization, clonogenic assay; format: cell-based, human; conditions: 1 μM
Description: as §1, §2

calcineurin = calcineurin (Rattus norvegicus, UniProt P63329); test: Calcineurin pNPP phosphatase assay; format: biochemical; conditions: concentration as high as 83.3 μM
Description: PP-1cγ and calcineurin activity was analyzed, using a colorimetric p-nitrophenol phosphate (pNPP) assay as previously described (33). The reaction were carried out in a 96-well microplate with a final volume of 60 μl containing 40 μl of pNPP assay buffer (50 mM Tris, pH 7.4, 0.1 mM EDTA, 30 mM MgCl2, 0.5 mM MnCl2, 1 mg/ml BSA, 0.2% β-mercaptoethanol), 0.03 μg PP-1cγ (specific activity>30 units per mg) or a catalytically equivalent quantity of calcineurin and 10 μl of 0.5 mM DNA 3′-phosphatase inhibitor sample in DMSO or 10 μl of 50 μM A12B4C3 sample in DMSO, or control solvent. After a 10-minute incubation at 37° C., 10 μl of 30 mM pNPP was added to each well and incubated for an additional of 60 minutes and 45 minutes for PP-1cγ and calcineurin, respectively. The absorbance at 405 nm was measured using a SOFTmax 2.35 microplate reader (Molecular Devices, Sunnyvale, Calif.).

[4] = biological target: T2, hPNKP 3'-phosphatase activity (Homo sapiens, UniProt Q96T60); test: Conventional radio-gel assay for hPNKP 3'-phosphatase activity; format: biochemical
T2 construct: made in house; host or cells: bacteria (said only for the batch compared with aprataxin)

[5] = biological target: T3, human PNKP (hPNKP) 3'-phosphatase activity (Homo sapiens, UniProt Q96T60); test: Fluorescence quenching-based screening assay for PNKP 3'-phosphatase activity; format: biochemical; conditions: 100 μM compound, 50 ng hPNKP
T3 construct: made in house; host or cells: bacteria (said only for the batch compared with aprataxin)
Description: The […] assay developed originally for protein kinases by QTL Biosystems (Santa Fe, N. Mex.) was modified. […] The TAMRA-labelled oligonucleotide lacking a 3'-phosphate served as a control. […] The assay was performed in 384-well white Optiplate microplates (PerkinElmer, Woodbridge, ON) in 70 mM Tris-HCl, pH 7.4, 60 mM MgCl2, 5 mM MnCl2, 0.3% BSA, 0.09% sodium azide. Reaction buffer was prepared by adding 1 mM DTT immediately prior to use. Five μL of 3'-phosphatase substrate (final concentration 0.5 μM) was used per well. In duplicate, 10 μl of each concentration of hPNKP was added per well. Plates were incubated for 1 hour at 37° C. and then 15 μl of 1× sensor solution (provided by QTL) was added to each well and incubated for 30 minutes at room temperature. Fluorescence (485 nm excitation and 520 nm emission wavelengths) of each well was read in a FLUOstar Optima® (BMG Labtech Inc, Durham, N.C.). Data were analyzed using GraphPad Prism® Software (San Diego, Calif.). […] Small molecules were provided in powder form and were dissolved in 100% DMSO and a final concentration of 100 μM was added to each well and assays were performed as described above. After obtaining an optimum calibration curve and enzyme concentration curve, a simplified form of the assay to test the library in a short time, was employed. One concentration of hPNKP, 50 ng, was tested and compared with the control well with no enzyme. The assay was conducted in the same way as described above with respect to oligonucleotides, buffer, controls, incubation lengths/temperatures, centrifugations and sensor addition. The fluorescence-based phosphatase assay adapted was originally developed to monitor protein phosphatase activity (34). This assay involves a fluorescent sensor molecule coated in trivalent metal cations which causes superquenching of the sensor signal when in close proximity to a dye (TAMRA) on the substrate. The sensor is brought close to TAMRA via the ionic bond formed between the terminal DNA phosphate and the trivalent metal cations on the sensor. Removal of the phosphate leads to an elevation of fluorescence because the sensor is not brought close enough to TAMRA for its signal to be quenched. […] Heat inactivated hPNKP was used as a control.

Compound: CCCCCCCCCCC(O)C1C=CC2C(=O)N(c3ccccc3)C(=O)C2N1Nc1ccc([N+](=O)[O-])cc1 (centres unmarked) [Compound A12B4C3, 2-(1-hydroxyundecyl)-1-(4-nitrophenylamino)-6-phenyl-6,7a-dihydro-1H-pyrrolo[3,4-b]pyridine-5,7(2H,4aH)-dione]
- inhibition at 1 µM ([1]; 1 μM): ~16%
- reduction of human PNKP kinase activity ([1]; 50 μM): ~30%
- cytotoxicity by clonogenic survival assay [2]: lack of cytotoxicity
- radiosensitization (γ-radiation survival curves) (A549 cells): almost doubled the radiosensitivity
- radiosensitization (γ-radiation survival curves) [3]: failed to sensitize
- inhibition of calcineurin (calcineurin): Neither enzyme displayed inhibition; also recorded: no inhibition
- inhibition of hPNKP phosphatase activity, radio-gel assay [4]: inhibited
- inhibition of hPNKP phosphatase activity (substrate dephosphorylation) in the screening assay [5]: significant inhibition; also recorded: marked inhibition
